Patent publication US20240384268A1, “Oligonucleotides” (Hudson Institute of Medical Research, priority 2021, published 2024)
In the oligonucleotide strings, read from the 5' end, every base follows the letter of its sugar. An asterisk marks phosphorothioate; unmarked linkages are phosphodiester. Other units and linkages are bracketed, terminal groups are in braces. A string of capitals states the bases alone. d = 2'-deoxy (DNA); m = 2'-O-methyl

The substances below were run against cGAS (Homo sapiens, UniProt Q8N884) (assay: ISD70-driven IP-10 (and IFN-β) production in THP-1 cells, ELISA). Conditions: THP-1; 100 nM ASO overnight, then ISD70 2.5 μg/ml 7-8 h; percentage of ISD70 only.
Chain of cGAS (Q8N884 whole entry): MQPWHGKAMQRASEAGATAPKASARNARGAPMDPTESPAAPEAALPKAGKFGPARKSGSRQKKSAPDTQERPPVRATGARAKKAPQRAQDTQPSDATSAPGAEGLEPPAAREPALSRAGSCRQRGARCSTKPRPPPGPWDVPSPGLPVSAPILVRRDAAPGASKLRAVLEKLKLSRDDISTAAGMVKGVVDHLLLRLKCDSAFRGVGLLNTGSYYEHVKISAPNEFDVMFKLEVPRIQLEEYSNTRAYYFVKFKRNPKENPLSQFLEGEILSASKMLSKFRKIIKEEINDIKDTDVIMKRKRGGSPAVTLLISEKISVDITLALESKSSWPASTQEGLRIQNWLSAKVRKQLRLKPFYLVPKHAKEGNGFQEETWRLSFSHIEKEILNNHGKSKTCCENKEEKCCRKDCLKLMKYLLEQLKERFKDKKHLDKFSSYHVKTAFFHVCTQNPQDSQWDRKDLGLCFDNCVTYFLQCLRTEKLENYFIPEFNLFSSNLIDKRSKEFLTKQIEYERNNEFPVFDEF
Format: cell-based
Design: endogenous in cells; host or cells: THP-1 (undifferentiated)

Compared with “mU*mU*mC*mU*mC*T*C*T*G*G*T*C*C*C*A*mU*mC*mC*mC*mU (mU*mU*mC*mU*mC*dT*dC*dT*dG*dG*dT*dC*dC*dC*dA*mU*mC*mC*mC*mU; antisense) [[LINC-PINT]111]”, “mU*mU*mG*mG*mC*C*T*G*T*G*G*A*T*G*C*mU*mU*mU*mG*mU (mU*mU*mG*mG*mC*dC*dT*dG*dT*dG*dG*dA*dT*dG*dC*mU*mU*mU*mG*mU) [[LINC-PINT]2673.1]” is lower in “cGAS-100 nM: averaged IP-10 levels relative to ISD70” value: 77.41% for the first, 68.35% for the second.

First: mU*mU*mG*mU*mG*A*A*A*A*G*A*T*T*A*T*mC*mU*mU*mC*mU (mU*mU*mG*mU*mG*dA*dA*dA*dA*dG*dA*dT*dT*dA*dT*mC*mU*mU*mC*mU) [[CDKN2B-AS1]2138]
Second: mU*mU*mU*mG*mA*A*A*T*T*C*A*G*A*A*G*mA*mU*mU*mU*mG (mU*mU*mU*mG*mA*dA*dA*dT*dT*dC*dA*dG*dA*dA*dG*mA*mU*mU*mU*mG) [[LINC PINT|2690]
The “cGAS-100 nM: averaged IP-10 levels relative to ISD70” value of the first is lower: 69.36% for the first, 84.15% for the second.
